A short description of series [1]: Determination of the hygroscopicity (weight increase in a stability chamber). The format is physicochemical. Here is the method:
Here, the samples used were each subjected to the same pre-drying process (cf. Examples 3 and 4). The samples were exposed in each case for the time period stated in the Table at 25° C. and an air humidity of 65% relative air humidity.
The hygroscopicity of Zn-DTPA was checked by measuring the weight increase in a controlled environment. At air temperature (25±2°) C. and (60±5)% air humidity in a stability chamber (Thermo TEC), the weights of two samples (5.000 g) in each case were checked (Analytical balance, XS 205, Mettler Toledo). The weight was checked after 1, 2, 4, 6, 8, 24 and 48 hours.

For series [2] the following is noted: lyophilized powder, over 24 h; cited from earlier work.
The mark [3] stands for this setting: Table 6, time 1 h, 25° C., 65% relative air humidity.
Where [4] appears, read: Table 6, time 2 h, 25° C., 65% relative air humidity.
Where [5] appears, read: Table 6, time 4 h, 25° C., 65% relative air humidity.
[6] abbreviates: Table 6, time 6 h, 25° C., 65% relative air humidity.
The mark [7] stands for this setting: Table 6, time 8 h, 25° C., 65% relative air humidity.
Setting [8] is: Table 6, time 24 h, 25° C., 65% relative air humidity.
Setting [9] is: Table 6, time 48 h, 25° C., 65% relative air humidity.

Structures are written as SMILES.

Regarding `O=C([O-])CN(CCN(CC(=O)[O-])CC(=O)[O-])CCN(CC(=O)[O-])CC(=O)[O-].[Na+].[Na+].[Na+].[Zn+2]` [Amorph I, trisodium zinc diethylenetriaminepentaacetate], the Mean mass increase in series [1] (Table 1, time 1 h, product obtained by prior-art route, listed as Batch 1) worked out at 0.51%; in series [1] (Table 1, time 2 h, product obtained by prior-art route, listed as Batch 1) it was 0.89%; in series [1] (Table 1, time 4 h, product obtained by prior-art route, listed as Batch 1), 1.56%; in series [1] (Table 1, time 6 h, product obtained by prior-art route, listed as Batch 1), 2.35%; in series [1] (Table 1, time 8 h, product obtained by prior-art route, listed as Batch 1), 2.95%; in series [1] (Table 1, time 24 h, product obtained by prior-art route, listed as Batch 1) it was 7.38%. In addition, the Mean mass increase in series [1] (Table 1, time 48 h, product obtained by prior-art route, listed as Batch 1) is listed as 11.92%; in series [1] (setting [3]), 0.51%; in series [1] (setting [4]), 0.89%; in series [1] (setting [5]), 1.56%; in series [1] (setting [6]) it was 2.35%; in series [1] (setting [7]), 2.95%. For the same compound, the Mean mass increase in series [1] (setting [8]) is reported as 7.38%; in series [1] (setting [9]), 11.92%.
In the case of `O=C([O-])CN(CCN(CC(=O)[O-])CC(=O)[O-])CCN(CC(=O)[O-])CC(=O)[O-].[Na+].[Na+].[Na+].[Zn+2]` [Amorph Il, trisodium zinc diethylenetriaminepentaacetate], the Mean mass increase in series [1] (Table 1, time 1 h, product obtained by prior-art route, listed as Batch 2) is recorded as 0.56%; in series [1] (Table 1, time 2 h, product obtained by prior-art route, listed as Batch 2) it was 0.97%; in series [1] (Table 1, time 4 h, product obtained by prior-art route, listed as Batch 2), 1.73%; in series [1] (Table 1, time 6 h, product obtained by prior-art route, listed as Batch 2), 2.61%; in series [1] (Table 1, time 8 h, product obtained by prior-art route, listed as Batch 2), 3.26%; in series [1] (Table 1, time 24 h, product obtained by prior-art route, listed as Batch 2), 7.82%. Also, the Mean mass increase worked out at 12.02% in series [1] (Table 1, time 48 h, product obtained by prior-art route, listed as Batch 2); 0.56% in series [1] (setting [3]); 0.97% in series [1] (setting [4]); 1.73% in series [1] (setting [5]); 2.61% in series [1] (setting [6]); 3.26% in series [1] (setting [7]). Besides, the Mean mass increase in series [1] (setting [8]) is on record as 7.82%; in series [1] (setting [9]), 12.02%.
Take `O=C([O-])CN(CCN(CC(=O)[O-])CC(=O)[O-])CCN(CC(=O)[O-])CC(=O)[O-].[Na+].[Na+].[Na+].[Zn+2]` [Form I, trisodium zinc diethylenetriaminepentaacetate]: the Mean mass increase in series [1] (setting [3]) is reported as 0.32%; in series [1] (setting [4]), 0.54%; in series [1] (setting [5]) it was 0.92%; in series [1] (setting [6]), 1.34%; in series [1] (setting [7]), 1.64%; in series [1] (setting [8]) it was 3.91%. Also, in series [1] (setting [9]), the Mean mass increase was determined as 6.81%.
In the case of `O=C([O-])CN(CCN(CC(=O)[O-])CC(=O)[O-])CCN(CC(=O)[O-])CC(=O)[O-].[Na+].[Na+].[Na+].[Zn+2]` [Form II, A, trisodium zinc diethylenetriaminepentaacetate], the Mean mass increase in series [1] (setting [3]) worked out at 0.34%; in series [1] (setting [4]), 0.57%; in series [1] (setting [5]), 1.00%; in series [1] (setting [6]) it was 1.49%; in series [1] (setting [7]), 1.84%; in series [1] (setting [8]), 4.42%. Besides, in series [1] (setting [9]), the Mean mass increase worked out at 5.07%.
On to `O=C([O-])CN(CCN(CC(=O)[O-])CC(=O)[O-])CCN(CC(=O)[O-])CC(=O)[O-].[Na+].[Na+].[Na+].[Zn+2]` [Form II, B, trisodium zinc diethylenetriaminepentaacetate], for which the Mean mass increase in series [1] (setting [3]) came to 0.41%; in series [1] (setting [4]), 0.72%; in series [1] (setting [5]), 1.29%; in series [1] (setting [6]), 1.97%; in series [1] (setting [7]), 2.43%; in series [1] (setting [8]) it was 5.18%. In series [1] (setting [9]), the Mean mass increase worked out at 5.25%.
On to `O=C([O-])CN(CCN(CC(=O)[O-])CC(=O)[O-])CCN(CC(=O)[O-])CC(=O)[O-].[Na+].[Na+].[Na+].[Zn+2]` [Zn-DTPA, trisodium zinc diethylenetriaminepentaacetate], for which the water absorbed entry in series [2] is “more than 10 % by weight”.
Turning to `O=C([O-])CN(CCN(CC(=O)[O-])CC(=O)[O-])CCN(CC(=O)[O-])CC(=O)[O-].[Na+].[Na+].[Na+].[Zn+2]` [conventional Zn-DTPA, trisodium zinc diethylenetriaminepentaacetate], the “behaviour due to hygroscopy” value in series [1] (sufficiently long exposure to air humidity) was “deliquesces”.

These data come from US9447120B2, “Crystalline forms of zinc trisodium pentetic acid” (Hameln Pharma Plus GmbH, priority 2013, dated 2016).
